Assays:
[1] = test system: bedstraw; test: Test B pre/postemergence bedstraw; assay type: in vivo, Galium aparine; conditions: Postemergence
Procedure, shortened: (§1)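 Response is a visual 0-to-10 score relative to untreated plants, where 0 means no effect and 10 means complete control, taken twelve to sixteen days after application. Treatments went onto soil at planting and onto foliage of 1- to 4-leaf plants, using a surfactant-containing non-phytotoxic solvent.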

[2] = test system: blackgrass; test: Test B pre/postemergence blackgrass; assay type: in vivo, Alopecurus myosuroides
Procedure, shortened: as §1

[3] = test system: surinam grass; test: Test B pre/postemergence surinam grass; assay type: in vivo, Brachiaria decumbens
Procedure, shortened: as §1

[4] = test system: cocklebur; test: Test B pre/postemergence cocklebur; assay type: in vivo, Xanthium strumarium
Procedure, shortened: as §1

[5] = test system: corn; test: Test B pre/postemergence corn; assay type: in vivo, Zea mays
Procedure, shortened: as §1

[6] = test system: morningglory; test: Test B pre/postemergence morningglory; assay type: in vivo, Ipomoea hederacea; conditions: for Plant response rating, Morningglory: scale of 0 to 10 where 0 is no effect and 10 is complete control
Procedure, shortened: as §1

[7] = test system: pigweed; test: Test B pre/postemergence pigweed; assay type: in vivo, Amaranthus retroflexus
Procedure, shortened: as §1

[8] = test system: rape; test: Test B pre/postemergence rape; assay type: in vivo, Brassica napus; conditions: for Plant response rating, Rape: scale of 0 to 10 where 0 is no effect and 10 is complete control
Procedure, shortened: as §1

[9] = test system: soybean; test: Test B pre/postemergence soybean; assay type: in vivo, Glycine max; conditions: for Plant response rating, Soybean: scale of 0 to 10 where 0 is no effect and 10 is complete control
Procedure, shortened: as §1

[10] = test system: sugar beet; test: Test B pre/postemergence sugar beet; assay type: in vivo, Beta vulgaris; conditions: for Plant response rating, Sugarbeets: scale of 0 to 10 where 0 is no effect and 10 is complete control
Procedure, shortened: as §1

[11] = test system: velvetleaf; test: Test B pre/postemergence velvetleaf; assay type: in vivo, Abutilon theophrasti; conditions: for Plant response rating, Velvetleaf: scale of 0 to 10 where 0 is no effect and 10 is complete control
Procedure, shortened: as §1

[12] = test system: wild oat; test: Test B pre/postemergence wild oat; assay type: in vivo, Avena fatua; conditions: for Plant response rating, Wild oats: scale of 0 to 10 where 0 is no effect and 10 is complete control
Procedure, shortened: as §1

[13] = test system: purple nutsedge; test: Test B pre/postemergence purple nutsedge; assay type: in vivo, Cyperus rotundus; conditions: for Plant response rating, Nutsedge: scale of 0 to 10 where 0 is no effect and 10 is complete control
Procedure, shortened: as §1

[14] = test system: rice; test: Test B flood test rice; assay type: in vivo, Oryza sativa
Procedure, shortened: (§2)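 Flood test on plants grown to the 2-leaf stage; treated plants kept in greenhouse twelve to sixteen days, then visually rated against controls on a 0 (no effect) to 10 (complete control) scale.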

[15] = test system: smallflower flatsedge; test: Test B flood test smallflower flatsedge; assay type: in vivo, Cyperus difformis
Procedure, shortened: as §2

[16] = test system: bamyardgrass; test: Test B flood test barnyardgrass; assay type: in vivo, Echinochloa crus-galli
Procedure, shortened: as §2

[17] = Postemergence, Rate 250 g/ha, scale 0 to 10
[18] = Postemergence, Rate 500 g/ha, scale of 0 to 10 where 0 is no effect and 10 is complete control
[19] = Preemergence, Rate 62 g/ha, scale of 0 to 10 where 0 is no effect and 10 is complete control
[20] = Preemergence, Rate 125 g/ha, scale of 0 to 10 where 0 is no effect and 10 is complete control
[21] = Preemergence, Rate 250 g/ha, scale 0 to 10, 0 is no effect, 10 is complete control
[22] = Preemergence, Rate 500 g/ha, scale 0 to 10, 0 is no effect, 10 is complete control
[23] = Rate 62 g/ha, Postemergence, scale 0 to 10 (0 no effect, 10 complete control)
[24] = Rate 125 g/ha, Postemergence, scale 0 to 10, 0 is no effect, 10 is complete control
[25] = Rate 62 g/ha, flood test species, Pre-emergence, visual evaluation after twelve to sixteen days
[26] = Rate 125 g/ha, under heading Pre-emergence, flood test species, visual evaluation after twelve to sixteen days
[27] = Rate 250 g/ha, Pre-emergence (flood test species), scale 0 to 10, 0 is no effect, 10 is complete control
[28] = Rate 500 g/ha, Pre-emergence, flood test species, scale 0 to 10 (0 no effect, 10 complete control)

CC(C)N(C(=O)n1oc(=O)n(C(C)C(=O)N(C)C)c1=O)c1ccc(Cl)cc1 (stereo not shown) [Compound 480]
Bedstraw plant response rating ([1]; Rate 250 g/ha, scale 0 to 10): 0
Bedstraw plant response rating ([1]; Rate 500 g/ha, scale of 0 to 10 where 0 is no effect and 10 is complete control): 0
Bedstraw plant response rating ([1]; Rate 62 g/ha, scale 0 to 10 (0 no effect, 10 complete control)): 0
Bedstraw plant response rating ([1]; Rate 125 g/ha, scale 0 to 10, 0 is no effect, 10 is complete control): 0
Blackgrass plant response rating [2, 17]: 3
Blackgrass plant response rating [2, 18]: 8
Plant response rating, Blackgrass [2, 19]: 3
Plant response rating, Blackgrass [2, 20]: 5
Blackgrass plant response rating [2, 21]: 8
Blackgrass plant response rating [2, 22]: 9
Blackgrass plant response rating [2, 23]: 0
Blackgrass plant response rating [2, 24]: 3
B. signalgrass plant response rating ([3]; Postemergence, Rate 250 g/ha, scale 0 to 10, 0 no effect, 10 complete control): 5
B. signalgrass plant response rating [3, 18]: 6
Plant response rating, B. signalgrass [3, 19]: 0
Plant response rating, B. signalgrass [3, 20]: 4
B. signalgrass plant response rating [3, 21]: 7
B. signalgrass plant response rating [3, 22]: 9
B. signalgrass plant response rating [3, 23]: 0
B. signalgrass plant response rating [3, 24]: 3
Cocklebur plant response rating [4, 17]: 0
Cocklebur plant response rating [4, 18]: 1
Plant response rating, Cocklebur [4, 19]: 0
Plant response rating, Cocklebur [4, 20]: 0
Cocklebur plant response rating [4, 21]: 0
Cocklebur plant response rating [4, 22]: 0
Cocklebur plant response rating [4, 23]: 0
Cocklebur plant response rating [4, 24]: 0
Corn plant response rating [5, 17]: 0
Corn plant response rating [5, 18]: 2
Plant response rating, Corn [5, 19]: 0
Plant response rating, Corn [5, 20]: 0
Corn plant response rating [5, 21]: 0
Corn plant response rating [5, 22]: 3
Corn plant response rating [5, 23]: 0
Corn plant response rating [5, 24]: 0
Morningglory plant response rating [6, 17]: 7
Plant response rating, Morningglory ([6]; Preemergence, Rate 62 g/ha): 0
Plant response rating, Morningglory ([6]; Preemergence, Rate 125 g/ha): 0
Morningglory plant response rating [6, 21]: 0
Morningglory plant response rating [6, 22]: 0
Morningglory plant response rating [6, 23]: 2
Morningglory plant response rating [6, 24]: 4
Redroot pigweed plant response rating [7, 17]: 1
Plant response rating, Redroot pigweed [7, 19]: 2
Redroot pigweed plant response rating [7, 21]: 8
Redroot pigweed plant response rating [7, 22]: 9
Redroot pigweed plant response rating [7, 23]: 0
Redroot pigweed plant response rating [7, 24]: 0
Rape plant response rating [8, 17]: 0
Plant response rating, Rape ([8]; Preemergence, Rate 62 g/ha): 0
Plant response rating, Rape ([8]; Preemergence, Rate 125 g/ha): 0
Rape plant response rating [8, 21]: 0
Rape plant response rating [8, 22]: 0
Rape plant response rating [8, 23]: 0
Rape plant response rating [8, 24]: 0
Soybean plant response rating [9, 17]: 3
Plant response rating, Soybean ([9]; Preemergence, Rate 62 g/ha): 0
Plant response rating, Soybean ([9]; Preemergence, Rate 125 g/ha): 0
Soybean plant response rating [9, 21]: 0
Soybean plant response rating [9, 22]: 1
Soybean plant response rating [9, 23]: 2
Soybean plant response rating [9, 24]: 3
Sugarbeets plant response rating [10, 17]: 0
Plant response rating, Sugarbeets ([10]; Preemergence, Rate 62 g/ha): 0
Plant response rating, Sugarbeets ([10]; Preemergence, Rate 125 g/ha): 0
Sugarbeets plant response rating [10, 21]: 0
Sugarbeets plant response rating [10, 22]: 0
Sugarbeets plant response rating [10, 23]: 0
Sugarbeets plant response rating [10, 24]: 0
Velvetleaf plant response rating [11, 17]: 0
Plant response rating, Velvetleaf ([11]; Preemergence, Rate 62 g/ha): 0
Plant response rating, Velvetleaf ([11]; Preemergence, Rate 125 g/ha): 0
Velvetleaf plant response rating [11, 21]: 0
Velvetleaf plant response rating [11, 22]: 0
Velvetleaf plant response rating [11, 23]: 0
Velvetleaf plant response rating [11, 24]: 0
Wild oats plant response rating [12, 17]: 0
Plant response rating, Wild oats ([12]; Preemergence, Rate 62 g/ha): 0
Plant response rating, Wild oats ([12]; Preemergence, Rate 125 g/ha): 2
Wild oats plant response rating [12, 21]: 4
Wild oats plant response rating [12, 22]: 7
Wild oats plant response rating [12, 23]: 0
Wild oats plant response rating [12, 24]: 0
Nutsedge plant response rating [13, 17]: 0
Plant response rating, Nutsedge ([13]; Preemergence, Rate 62 g/ha): 0
Plant response rating, Nutsedge ([13]; Preemergence, Rate 125 g/ha): 0
Nutsedge plant response rating [13, 21]: 0
Nutsedge plant response rating [13, 22]: 0
Nutsedge plant response rating [13, 23]: 0
Nutsedge plant response rating [13, 24]: 0
Plant response rating, Rice (0 to 10 scale, 0 is no effect, 10 is complete control) [14, 25]: 0
Rice plant response rating (0 to 10 scale, 0 is no effect, 10 is complete control) [14, 26]: 0
Rice plant response rating [14, 27]: 0
Rice plant response rating [14, 28]: 0
Plant response rating, S. Flatsedge (0 to 10 scale, 0 is no effect, 10 is complete control) [15, 25]: 0
S. Flatsedge plant response rating (0 to 10 scale, 0 is no effect, 10 is complete control) [15, 26]: 0
S. Flatsedge plant response rating [15, 27]: 0
S. Flatsedge plant response rating [15, 28]: 0
Plant response rating, Barnyardgrass (0 to 10 scale, 0 is no effect, 10 is complete control) [16, 25]: 0
Barnyardgrass plant response rating (0 to 10 scale, 0 is no effect, 10 is complete control) [16, 26]: 0
Barnyardgrass plant response rating [16, 27]: 0
Barnyardgrass plant response rating [16, 28]: 0
